One substance from patent US8138153B2, “Potassium channel modulator peptide” (National Centre for Biological Sciences, priority 2004, dated 2012) can be followed below.

Entries after “also recorded” stand apart in the source; their conditions may differ.

The subject of the assay is K^+ currents (voltage dependent potassium channels) in DRG neurons. It is filed as cell-based, Wistar rats.

In the case of FHGGSWYRFPWGY-NH2 [Mo1659], the “Effect on sustained (non-inactivating) K^+ current component” value is “predominantly affects the sustained K^+ current component; also recorded: specifically acts on the non-inactivating K^+ currents”.
